Measured values as given in article PMC9369712 (2022).

Tests used:
[1] = test system: TP3-T6 (DNA, G4) TGGGGTCCGAGGCGGGGCTTGGG; assay: 1H NMR titration (imino protons); conditions: 70 mM KCl, 20 mM KH2PO4, pH 7.0, 25 °C, 90% H2O
[2] = test system: TP3-T6 (DNA, G4) TGGGGTCCGAGGCGGGGCTTGGG; assay: CD melting at 265 nm; conditions: 70 mM KCl; 20 mM phosphate pH 7.1; 2 µM DNA, 6 µM ligand; no stabilization
[3] = test system: TP3-T6 (DNA, G4) TGGGGTCCGAGGCGGGGCTTGGG; assay: CD melting; conditions: 70 mM KCl; 20 mM phosphate pH 7.1; 2 µM DNA, DNA:ligand 1:3

Row | SMILES | binding ([1]; 3'-end tetrad) | also measured
1 | CN(C)CCNC(=O)c1cccn2c(=O)c3cc4ccccc4cc3nc12 | yes | 
2 | CN(C)CCNC(=O)c1cccn2c(=O)c3sc4ccccc4c3nc12 | yes | binding [2]: yes
3 | Cc1cc2c3c([n+](C)c4ccc(F)cc4c3c1)-c1cc(F)ccc1N2C |  | binding ([1]; 5'-terminal tetrad signals broadened): yes
4 | Cc1cnc(CNC(=O)c2c(=O)c3ccc(N4CCCN(C)CC4)nc3n3c2sc2ccccc23)cn1 | yes | 
5 | NCCOc1cc(C(=O)Nc2cc(OCCN)c3ccccc3n2)nc(C(=O)Nc2cc(OCCN)c3ccccc3n2)c1 |  | ΔTm [3]: > 30 °C
